Holding throughout (assay type): functional
Test [1] deals with Shigella sonnei. The test can be described thus: Antimicrobial activity against Shigella sonnei isolate AM20369 by broth microdilution method. A general note: In broth dilution the organism is exposed to a series of concentrations in liquid medium.
The subject of test [2] is Shigella. The test can be described thus: Antimicrobial activity against Shigella isolate DH-22451 by broth microdilution method.
In test [3] the test system is Shigella flexneri. The test can be described thus: Antimicrobial activity against Shigella flexneri isolate AM19035 by broth microdilution method.
The test system of test [4] is Shigella sonnei. The test can be described thus: Antimicrobial activity against Shigella sonnei isolate AM22451 by broth microdilution method.
Test [5] deals with Shigella. Briefly: Antimicrobial activity against Shigella isolate DH-13291 by broth microdilution method.
The subject of test [6] is Shigella flexneri. Briefly: Antimicrobial activity against Shigella flexneri isolate AM26336 by broth microdilution method.
Test [7] concerns Shigella sonnei. Briefly: Antimicrobial activity against Shigella sonnei isolate AM22855 by broth microdilution method.
For test [8], the system named is Shigella flexneri. Briefly: Antimicrobial activity against Shigella flexneri isolate AM13291 by broth microdilution method.
For test [9], the system named is Shigella. Briefly: Antimicrobial activity against Shigella isolate DH-19035 by broth microdilution method.
The subject of test [10] is Shigella. The test can be described thus: Antimicrobial activity against Shigella isolate DH-26336 by broth microdilution method.
Test [11] relates to Shigella. Briefly: Antimicrobial activity against Shigella isolate DH-20369 by broth microdilution method.
Test [12] concerns Shigella. The test can be described thus: Antimicrobial activity against Shigella isolate DH-22855 by broth microdilution method.

Molecules are shown by their SMILES. Converted amounts (≈) assume the structure as drawn.

The MIC is the smallest concentration in the dilution series that meets the test's criterion for growth inhibition. A high value points to a less susceptible organism.

`CO/N=C(\C(=O)N[C@@H]1C(=O)N2C(C(=O)[O-])=C(C[N+]3(C)CCCC3)CS[C@H]12)c1csc(N)n1` [CEFEPIME]: the MIC was found to be 8 µg/mL (≈ 16.6 µM) in the test with Shigella sonnei [1]; 16 µg/mL (≈ 33.3 µM) against Shigella [2]; 2 µg/mL (≈ 4.16 µM) against Shigella flexneri [3]; 8 µg/mL (≈ 16.6 µM) in the test with Shigella sonnei [4]; 4 µg/mL (≈ 8.32 µM) with Shigella [5]; 2 µg/mL (≈ 4.16 µM) in the test on Shigella flexneri [6]. Besides, the MIC against Shigella sonnei [7] turned out to be 8 µg/mL (≈ 16.6 µM); in the test with Shigella flexneri [8], 2 µg/mL (≈ 4.16 µM); with Shigella [9] it was 4 µg/mL (≈ 8.32 µM); with Shigella [10], 4 µg/mL (≈ 8.32 µM); with Shigella [11], 16 µg/mL (≈ 33.3 µM); in the test with Shigella [12], 16 µg/mL (≈ 33.3 µM).

Consider `CO/N=C(\C(=O)N[C@@H]1C(=O)N2C(C(=O)O)=C(COC(C)=O)CS[C@H]12)c1csc(N)n1` [CEFOTAXIME], for which the MIC against Shigella sonnei [1] is 64 µg/mL (≈ 141 µM); against Shigella [2], 128 µg/mL (≈ 281 µM); in the test with Shigella flexneri [3], 32 µg/mL (≈ 70.3 µM); in the test with Shigella sonnei [4], 64 µg/mL (≈ 141 µM); in the test on Shigella [5], 32 µg/mL (≈ 70.3 µM); in the test on Shigella flexneri [6], 8 µg/mL (≈ 17.6 µM). The MIC in the test with Shigella sonnei [7] came out at 64 µg/mL (≈ 141 µM); in the test on Shigella flexneri [8], 8 µg/mL (≈ 17.6 µM); in the test on Shigella [9] it was 64 µg/mL (≈ 141 µM); with Shigella [10] it was 64 µg/mL (≈ 141 µM); in the test with Shigella [11] it was 128 µg/mL (≈ 281 µM); with Shigella [12], 64 µg/mL (≈ 141 µM).

Consider `CC(C)(O/N=C(\C(=O)N[C@@H]1C(=O)N2C(C(=O)[O-])=C(C[n+]3ccccc3)CS[C@H]12)c1csc(N)n1)C(=O)O` [CEFTAZIDIME], for which the MIC stood at 8 µg/mL (≈ 14.6 µM) with Shigella sonnei [1]; 32 µg/mL (≈ 58.5 µM) against Shigella [2]; 0.5 µg/mL (≈ 0.915 µM) in the test with Shigella flexneri [3]; 8 µg/mL (≈ 14.6 µM) in the test with Shigella sonnei [4]; 2 µg/mL (≈ 3.66 µM) with Shigella [5]; 0.5 µg/mL (≈ 0.915 µM) with Shigella flexneri [6]. The MIC against Shigella sonnei [7] is 8 µg/mL (≈ 14.6 µM); against Shigella flexneri [8], 0.5 µg/mL (≈ 0.915 µM); with Shigella [9], 2 µg/mL (≈ 3.66 µM); in the test with Shigella [10] it was 4 µg/mL (≈ 7.32 µM); with Shigella [11], 16 µg/mL (≈ 29.3 µM); against Shigella [12], 16 µg/mL (≈ 29.3 µM).

For the compound `CO/N=C(\C(=O)N[C@@H]1C(=O)N2C(C(=O)O)=C(CSc3nc(=O)c(O)nn3C)CS[C@H]12)c1csc(N)n1` [CEFTRIAXONE], the MIC against Shigella sonnei [1] was 64 µg/mL (≈ 115 µM); with Shigella [2] it was more than 64 µg/mL; in the test on Shigella flexneri [3] it was 32 µg/mL (≈ 57.7 µM); with Shigella sonnei [4] it was more than 64 µg/mL; against Shigella [5] it was 32 µg/mL (≈ 57.7 µM); against Shigella flexneri [6], 16 µg/mL (≈ 28.9 µM). In addition, the MIC was 64 µg/mL (≈ 115 µM) against Shigella sonnei [7]; 16 µg/mL (≈ 28.9 µM) in the test with Shigella flexneri [8]; 32 µg/mL (≈ 57.7 µM) in the test on Shigella [9]; 32 µg/mL (≈ 57.7 µM) against Shigella [10]; more than 64 µg/mL against Shigella [11]; more than 64 µg/mL with Shigella [12].

Values taken from ChEMBL document CHEMBL1255459, “Identification and characterization of CTX-M-producing Shigella isolates in the United States” (2010).
